Measured values published in patent publication US20080287513A1, “Topical compositions containing metronidazole” (priority 2007, published 2008).

Key:
[1] = at 25 °C; cited from earlier work
[2] = Physical stability test of aqueous metronidazole compositions (crystal formation or precipitation); assay type: physicochemical; settings: for Results from stability test: 24 h room temperature then 7 days at about 4 °C
Description: The solubility enhancing effect of the combination of niacinamide and urea in increasing the solubility of metronidazole in the aqueous compositions is evaluated by physical stability of the prepared compositions.
Therefore, the formulations are subject to a physical stability test. The protocol for the stability test is as follows: metronidazole and the solubility enhancing agents are combined with water either at room temperature or elevated temperature while stirring until dissolved. The solutions are permitted to cool to room temperature. Customary auxiliaries and additives may be added to the aqueous solutions containing solubilized metronidazole and solubility enhancing agents. The solutions may be gelled by using the suitable gelling agents. The compositions both in gel or solution form are then packaged in clear glass vials and sealed. The vials are kept at room temperature for 24 hours and monitored for crystal formation or precipitation. After 24 hours, the vials are placed in a refrigerator maintained at a temperature of about 4° C. for 7 days. After 7 days, the vials are removed from the refrigerator. Evidence of crystal formation or precipitation is examined.
(§1) Each formulation was prepared by combining niacinamide and metronidazole in water (q.s 100%). The mixture was kept at a temperature of about 45° C. while stirring until dissolved. The solutions were permitted to cool to room temperature, packaged and sealed in glass vials. The stability tests described in Example 1 were performed and the test results were recorded.
as §1, with “urea” for “niacinamide”
as §1, with “urea, niacinamide,” for “niacinamide”, “kept either at room temperature or” for “kept”

Compound: NC(=O)c1cccnc1 [niacinamide]
- Water solubility limit [1]: about 50 % by weight
- Concentration of niacinamide needed to obtain a stable aqueous solution of 1.0% metronidazole ([2]; concentration of urea is 1.0%): about 4.0%
- Urea concentration functionally equivalent to 1% niacinamide in inducing the solubility enhancing effect ([2]; from Examples 2 and 3, 1.0% metronidazole): about 2%
- Concentration of niacinamide required to obtain a stable aqueous solution of 1.0% metronidazole ([2]; niacinamide as the only solubility enhancing agent): about 5%

Compound: Cc1ncc([N+](=O)[O-])n1CCO [Metronidazole, 1-(2-hydroxyethyl)-2-methyl-5-nitroimidazole]
- Results from stability test ([2]; 1.0% metronidazole + 1.0% urea + 3.0% niacinamide in water): Crystals
- Results from stability test ([2]; 1.0% metronidazole + 1.0% urea + 4.0% niacinamide in water): Clear
- Results from stability test ([2]; 1.0% metronidazole + 2% niacinamide in water): Crystals formed
- Results from stability test ([2]; 1.0% metronidazole + 3% niacinamide in water): Crystals formed
- Results from stability test ([2]; 1.0% metronidazole + 3.0% urea + 3.0% niacinamide in water): Clear
- Results from stability test ([2]; 1.0% metronidazole + 4% niacinamide in water): Crystals formed
- Results from stability test ([2]; 1.0% metronidazole + 4.0% urea + 1.0% niacinamide in water): Crystals
- Results from stability test ([2]; 1.0% metronidazole + 5% niacinamide in water): Clear
- Results from stability test ([2]; 1.0% metronidazole + 5.0% urea + 1.0% niacinamide in water): Clear
- Results from stability test ([2]; 1.0% metronidazole + 5.0% urea + 1.0% niacinamide in water, listed as metronidazole): stable
- Results from stability test ([2]; 1.0% metronidazole + 5.0% urea + 2.0% niacinamide in water): Clear
- Results from stability test ([2]; 1.0% metronidazole + 7% urea in water): Crystals formed
- Results from stability test ([2]; 1.0% metronidazole + 7% urea in water, listed as metronidazole): not sufficient to solubilize
- Results from stability test ([2]; 1.0% metronidazole + 8% urea in water): Crystals formed
- Results from stability test ([2]; 1.0% metronidazole + 9% urea in water): Crystals formed
- Results from stability test ([2]; 1.0% metronidazole + 10% urea in water): Clear
- Results from stability test ([2]; 1.2% metronidazole + 10.0% urea + 2.0% niacinamide in water): Clear
- Results from stability test ([2]; 1.5% metronidazole + 15.0% urea + 4.0% niacinamide in water): Clear

Compound: NC(N)=O [urea]
- Water solubility limit [1]: about 50 % by weight
- Concentration of urea needed to obtain a stable aqueous solution of 1.0% metronidazole ([2]; concentration of niacinamide is 1.0%): ≥ 5.0%
- Concentration of urea required to obtain a stable aqueous solution of 1.0% metronidazole ([2]; urea as the only solubility enhancing agent): about 10%
